# Assay results from patent publication US7465814B2, “Sulfonate compound and fluorescent probe using the same” (priority 2003, dated 2008).
# How the values were obtained:
# [1] = Reactivity with superoxide and glutathione (FIG. 4); assay type: biochemical; details: same conditions as 1-3 Superoxide-selectivity (2)
# Protocol: Moreover, in other conditions than those of the above-described tests, reactivity of all of the compounds 1a to 1d with H2O2, other various kinds of nucleophilic agents, reducing agents and the like also was tested, respectively. More specifically, fluorescent responses of 1a to 1d with respect to a XO-HPX system, a XO-HPX-SOD system, H2O2, ascorbic acid, 1,4-hydroquinone, propylamine, diethylamine, glucose, esterase, a cytochrome P450 reductase+NADPH system, and a diaphorase+NADH system were measured, respectively. Operational processes thereof will be described below. Firstly, 1a to 1d and the above-described reagents were dissolved in HEPES of 10 mM having a pH of 7.4 so as to prepare solutions, respectively. Next, a 96 wellmicroplate was provided, where any of the solutions of 1a to 1d (25 μM, 170 μL) was poured into each of the wells, and furthermore, 30 μL of a blank solution or 30 μL of the solution of the reagent to be reacted therewith was added thereto. Final concentrations of the solutions in the wells were adjusted so that concentrations of the solutions of 1a to 1d respectively could be 21.3 μM, that of XO could be 13.1 mU/mL, those of HPX, H2O2, ascorbic acid, 1,4-hydroquinone, propylamine, diethylamine, glucose, NADPH and NADH respectively could be 50 μM, that of cytochrome P450 reductase could be 68 mU/mL, that of diaphorase could be 65 mU/mL, and that of esterase could be 0.5 U/mL, respectively. Then, after they reacted in the wells at 37° C. for 10 minutes, fluorescent responses were measured respectively. Fluorescence intensity measurement was conducted by using an ETC-272 Peltier thermostatted single cell holder (trade name) manufactured by JASCO Corporation or a SpectraMax GeminiEM fluorescence plate reader (trade name) manufactured by Molecular Devices Corporation provided with a FP-750 spectrofluorometer (trade name) manufactured by JASCO Corporation, and by setting excitation wavelengths and emission wavelengths so that those of 1a, 1b and 1c respectively could be 485 nm and 515 nm, and those of 1d respectively could be 511 nm and 540 nm.
# The reactivity of each of the compounds 1d, 5a, 6a, 7 and 8a with respect to superoxide and glutathione (GSH) that is a kind of thiol was tested under the same conditions as those of [1-3. Superoxide-selectivity (2)] in Example 1. […] A vertical axis thereof denotes a fluorescence intensity, which is represented in % of control.
# [2] = system: neutrophils stimulated by phorbol myristate acetate (PMA); experiment: Superoxide detection in PMA-stimulated neutrophils (FIG. 2, FIG. 3); assay type: cell-based, human; details: probe 25 μM solution 50 μL, PMA 0.64 μM solution 50 μL, 37° C., 120 minutes
# Excerpt: It is known that, if neutrophils are stimulated by phorbol ester, superoxide is produced. […] A specific testing method will be described below.
# Firstly, whole blood donated by a good-health volunteer was heparinized, and it was subjected to centrifugal separation after adding a Mono-Poly resolving medium manufactured by Dainippon Pharmaceutical Co. Ltd. thereto. After the separation, cells were washed with PBS (−) twice, were suspended again at a concentration of 1.0×10^6 or 1.0×10^5 cells/mL by using PBS (+), and were maintained under an ice-cold condition until they were used. […] Fluorescence intensity measurement was conducted immediately (measurement at the time 0), and thereafter, incubation was conducted at 37° C. for 120 minutes. During the incubation, a change of the fluorescence intensity of the cells was measured once every 30 minutes. All of the measurements were conducted by using a CytoFluor II multiwell fluorescence plate reader (trade name) manufactured by PerSeptive Biosystems, Inc. in the U.S., by setting an excitation filter and an emission filter at 485±20 nm and 530±25 nm, respectively.
# A horizontal axis of the graph denotes an incubation time (minute), and a vertical axis thereof denotes a fluorescence intensity (au). […]
smiles,measurement,setting,value
O=C1OC2(c3ccccc31)c1cc(F)c(OS(=O)(=O)c3ccc([N+](=O)[O-])cc3[N+](=O)[O-])c(F)c1Oc1c2cc(F)c(OS(=O)(=O)c2ccc([N+](=O)[O-])cc2[N+](=O)[O-])c1F [Compound 1d],"selectivity (specificity), superoxide versus glutathione, FIG. 4",[1],excellent superoxide-selectivity
same,detection of superoxide from PMA-stimulated neutrophils,[2],could detect superoxide with high sensitivity in a cell system also
